Data on 1 compound can be found in paper PMC12910667, “Investigating the Landscape of C6-Azaindole Side Chain on the Epoxymorphinan Skeleton via the Nitrogen Walk Concept: A Strategy to Enhance Drug-Like Properties” (Journal of Medicinal Chemistry, 2026).

One assay deals with T1, KOR (Mus musculus, UniProt P33534).
T1 construct: expressed in transfected cells; host or cells: CHO cells (provided by Dr. Selley, Virginia Commonwealth University)
The assay can be described thus: competitive radioligand binding assay, KOR. Particulars: CHO cell membranes; mean ± SEM (n ≥ 3).

Assay [1] addresses T2, human δ-opioid receptor (DOR) (Homo sapiens, UniProt P41143).
T2 construct: expressed in transfected cells; host or cells: CHO cells (provided by Dr. Selley, Virginia Commonwealth University)
The assay can be described thus: competitive radioligand binding assay, DOR. The note with it: CHO cell membranes; mean ± SEM (n ≥ 3).

For a further assay, the target named is T3, MOR (Mus musculus, UniProt P42866).
T3 construct: expressed in transfected cells
The assay can be described thus: [35S]-GTPγS functional assay at MOR. The class given is biochemical. The note with it: relative to 3 μM DAMGO; mean ± SEM (n ≥ 3). Background: GTPγS is a poorly hydrolysed GTP analogue; its binding reports G protein activation.

A word on the Ki: it is a measure of affinity in units of concentration, obtained from inhibition or displacement. Read a low Ki as a stronger hold on the target. With `O=C(N[C@H]1CC[C@@]2(O)[C@H]3Cc4ccc(O)c5c4[C@@]2(CCN3CC2CC2)[C@H]1O5)c1cccc2cc[nH]c12` [NAN, 17-cyclopropylmethyl-3,14β-dihydroxy-4,5α-epoxy-6α-(indole-7-carboxamido)morphinan], the results for the Ki (on KOR; in assay [1]) were 1.69 ± 0.35 nM and 13.7 ± 1.39 nM, respectively. Besides, the “MOR [35S]-GTPγS binding % Emax of DAMGO” value on MOR was 19.11 ±3.31%.
